In paper PMC6123711, “Conformational signatures in β-arrestin2 reveal natural biased agonism at a G-protein-coupled receptor” (Communications Biology, 2018):

Tests used:
[1] = test system: Galr2–β-arrestin2–clathrin complex; assay: β-arrestin2–clathrin interactions (NanoBit); type: cell-based, human; conditions: for Log(τ/KA), Clathrin:β-arrestin2 / formation of Galr2–β-arrestin2–clathrin complex: data at 5 min after agonist; for Log(τ/KA), Clathrin:β-arrestin2: operational model (Eq. 2); for Log(τ/KA), Clathrin:β-arrestin2 / ΔLog(τ/KA), Clathrin:β-arrestin2: mean ± s.e.m. of three experiments in triplicate; for formation of Galr2–β-arrestin2–clathrin complex: dose–response, normalized to Galanin; for ΔLog(τ/KA), Clathrin:β-arrestin2: normalized to Galanin (reference agonist), in parenthesis
Text: The interaction between β-arrestin2 and clathrin induced by the activation of Galr2 was examined using the NanoBit technology. We measured real-time association of the protein complex Galr2–β-arrestin2–clathrin. We constructed β-arrestin2 and clathrin subunit A tagged with LgBit or SmBit at the C or N termini and screened eight different plasmid combinations, out of which only one combination (β-arrestin2–LgBit:SmBit–clathrin) responded to ligand stimulation (Fig. 3, Supplementary Fig. 3). Before ligand stimulation, Galr2, β-arrestin2, and clathrin were not in close proximity and so the basal luminescence was very low. […] A time course experiment was initially performed to determine the time at which the maximal increase in luminescence occurred following agonist stimulation. All ligands except for Fmoc-dA4-dQ14 induced different fold increase in luminescence immediately after ligand treatment (Fig. 3b). […] Galanin- and Spexin-induced increases in luminescence were attenuated by pretreatment of cmpd101, a G-protein-coupled receptor kinase 2/3 (GRK2/3) inhibitor, indicating contribution of GRK2/3 in the formation of Galr2–β-arrestin2–clathrin complex (Fig. 3).
The arrows indicate the time when the cells were treated with different ligands. […] The results are expressed as mean ± s.e.m. of three experiments performed in triplicate. Each triplicate was averaged before calculating the s.e.m.
Quantification of bias between each pathway was performed using Galanin as a reference ligand. All incubations for the different signaling assays were performed in serum-free medium to prevent peptide degradation.
One day before transfection, cells were seeded in 96-well plates at a density of 2.5 × 10^4 cells per well. A mixture containing 35 ng β-arrestin construct containing the LgBit or SmBit, 35 ng clathrin subunit A containing one of the two domains of Nluc and 30 ng untagged receptor, and 0.2 μl Lipofectamine 2000 (Invitrogen) was prepared and added to each well. We followed the assay manufacturer’s instructions and tested eight β-arrestin-clathrin plasmid combinations. In only one plasmid combination we were able to observe luminescent signal and it was chosen for further experiments. At 24 h post transfection, medium was aspirated and replaced with 100 μl OPTIMEM at room temperature. After a 10-min incubation, 25 μl substrate (furimazine) was added and the luminescence was monitored once every minute for 10 min. Then, 10 μl ligand was added to each well and the luminescence values were recorded immediately and once every minute for 1 h (Synergy 2 Multi-Mode Microplate Reader BioTek).

Galr2 = assay: Total inositol phosphate production; type: cell-based, human; conditions: for Log(τ/KA), Total inositol phosphate: HEK293 cells, human Galr2, 40 min at 37 °C, operational model (Eq. 2)
Text: Galr2 is primarily coupled to the Gαq-protein which activates the phospholipase C/protein kinase C pathway for inositol phosphate production. We measured G-protein activation in HEK293 cells transiently expressing Galr2, using the serum response element-luciferase (SRE-Luc) gene reporter assay[10],[37] and for a more specific monitoring of Gαq-protein activity we also measured total inositol phosphate production. […] However, some differences were observed between SRE-Luc activity and total inositol phosphate production in the rank order of potency of the tested ligands. […] Phosphorylation of extracellular signal-regulated protein kinases 1 and 2 (pErk1/2) is either G-protein or β-arrestin dependent. To distinguish Gαq-protein- and β-arrestin1/2-dependent Erk1/2 signaling, we examined ligand-stimulated Erk1/2 phosphorylation in three different HEK293 cell lines, wild type, Gαq/11-knockout, and β-arrestin1/2-knockout cells. All three ligands induced high levels of Erk1/2 phosphorylation dose-dependently in wild-type HEK293 cells.
Fig. 5 Galr2 agonists display different Gαq-protein-dependent signaling and pErk1/2. The ability of increasing concentrations of agonists to induce a SRE-Luc activity and b total inositol phosphate production. c Representative western blot showing ligand-induced phosphorylation of Erk1/2 from wild-type (HEK293 WT), Gαq/11-, and β-arrestin1/2-knockout HEK293 cells expressing Galr2 (original blots are presented in Supplementary Figure 4). pErk1/2 and total Erk levels were determined at 5 min after stimulation of different concentrations of three ligands. Western blot band intensities corresponding to each concentration were quantified using Image studio ^TM Software. […] Data are the mean ± s.e.m. values of two independent experiments
Galr2 activation was monitored using measurement of total inositol phosphate (IP + IP2 + IP3) production in HEK293 cells expressing human Galr2. For this assay, cells were seeded in 12-well plates at a density of 2.5 × 10^5 cells per well. The next day, the cells were transiently transfected with 1 μg/well plasmid containing human Galr2, using the Lipofectamine 2000 (Invitrogen) transfection reagent. The day after transfection, the cells were incubated in M199 medium containing 1% FBS, 1% L-glutamine, 1% penicillin/streptomycin, and 1 μCi/well myo-^3H inositol for 20 h. After a 30-min incubation in buffer A (140 mM NaCl, 20 mM Hepes, 4 mM KCl, 8 mM D-glucose, 1 mM MgCl2, 1 mM CaCl2, 1 mg/ml free fatty acid bovine serum albumin, and 10 mM LiCl at pH 7.2), the cells were exposed to the agonist for 40 min at 37 °C. […] The radioactivity of the samples was measured using a TRI carb 3100TR liquid scintillation analyzer (Packard).

[2] = mean ± s.e.m. of three experiments in triplicate

Row | Molecule | Log(τ/KA), Clathrin:β-arrestin2 [1] | formation of Galr2–β-arrestin2–clathrin complex [1] | ΔLog(τ/KA), Clathrin:β-arrestin2 [1] | Log(τ/KA), Total inositol phosphate (Galr2; [2]) | ΔLog(τ/KA), Total inositol phosphate (Galr2; normalized to Galanin (reference agonist), in parenthesis, mean ± s.e.m. of three experiments in triplicate) | efficacy in total inositol phosphate production (Galr2; HEK293 cells transiently expressing Galr2)
1 | Galanin [reference compound] | 8.00 ± 0.18 | highest response | 0.00 ± 0.20 | 4.20 ± 0.03 | 0.00 ± 0.02 | –
2 | Spexin (peptide, UniProt Q9BT56 27-116, looked up, Spexin, endogenous peptide ligand of Galr2 and Galr3; synthesized by AnyGen) Spexin: APQRLLERRNWTPQAMLYLKGAQGRRFISDQSRRKDLSDRPLPERRSPNPQLLTIPEAATILLASLQKSPEDEEKNFDQTRFLEDSLLNW | 6.22 ± 0.10 | lower potency and efficacy than Galanin | −1.80 ± 0.10 | 4.40 ± 0.03 | – | substantially higher efficacy
